Source: patent publication US7691858B2, “Kinase inhibitors and methods of use thereof” (TargeGen, Inc., priority 2006, dated 2010)

Assays:
PKC0 = target: T1, PKC0 (Homo sapiens, UniProt Q04759); experiment: Kinase panel screen; assay type: biochemical; details: Compound I and ATP 10 μM
T1 construct: purchased Upstate USA or Invitrogen (commercial screening service)

EphB4 = target: T2, EphB4 (Homo sapiens, UniProt P54760); experiment: Kinase panel screen; assay type: biochemical; details: Compound I and ATP 10 μM
T2 construct: purchased Upstate USA or Invitrogen (commercial screening service)
T2 sequence (P54760 16-987): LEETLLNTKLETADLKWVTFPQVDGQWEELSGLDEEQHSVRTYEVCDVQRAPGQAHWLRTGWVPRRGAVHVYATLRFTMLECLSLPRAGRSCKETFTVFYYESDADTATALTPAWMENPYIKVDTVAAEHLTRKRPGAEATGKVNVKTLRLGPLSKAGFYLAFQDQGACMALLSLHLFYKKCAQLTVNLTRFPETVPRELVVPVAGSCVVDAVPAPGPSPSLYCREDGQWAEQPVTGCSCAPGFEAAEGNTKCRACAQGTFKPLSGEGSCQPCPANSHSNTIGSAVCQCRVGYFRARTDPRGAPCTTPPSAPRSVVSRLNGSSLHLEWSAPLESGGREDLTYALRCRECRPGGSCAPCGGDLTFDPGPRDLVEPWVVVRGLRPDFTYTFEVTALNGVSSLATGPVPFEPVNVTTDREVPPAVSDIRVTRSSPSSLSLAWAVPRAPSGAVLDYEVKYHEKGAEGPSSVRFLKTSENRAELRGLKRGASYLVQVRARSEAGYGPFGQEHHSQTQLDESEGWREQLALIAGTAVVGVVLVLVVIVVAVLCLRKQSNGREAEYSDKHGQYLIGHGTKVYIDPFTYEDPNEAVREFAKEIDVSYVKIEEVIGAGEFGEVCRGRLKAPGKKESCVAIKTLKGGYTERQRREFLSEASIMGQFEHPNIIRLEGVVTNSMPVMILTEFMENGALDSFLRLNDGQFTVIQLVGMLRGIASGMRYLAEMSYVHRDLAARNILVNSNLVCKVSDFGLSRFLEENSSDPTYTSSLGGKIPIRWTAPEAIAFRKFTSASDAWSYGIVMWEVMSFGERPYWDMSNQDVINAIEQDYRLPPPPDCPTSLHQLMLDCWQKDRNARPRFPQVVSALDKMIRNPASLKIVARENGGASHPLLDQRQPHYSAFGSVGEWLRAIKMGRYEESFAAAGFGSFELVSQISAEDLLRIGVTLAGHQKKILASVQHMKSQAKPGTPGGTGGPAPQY

PRK2 = target: T3, PRK2 (Homo sapiens, UniProt Q16513); experiment: Kinase panel screen; assay type: biochemical; details: Compound I and ATP 10 μM
T3 construct: purchased Upstate USA or Invitrogen (contract screening service)

MST1 = target: T4, MST1 (Homo sapiens, UniProt Q13043); experiment: Kinase panel screen; assay type: biochemical; details: Compound I and ATP 10 μM
T4 construct: purchased Upstate USA or Invitrogen (commercial screening service)

Lyn = target: T5, Lyn (Mus musculus, UniProt P25911); experiment: Kinase panel screen; assay type: biochemical; details: Compound I and ATP 10 μM
T5 construct: purchased Upstate USA or Invitrogen (commercial screening service)

CK18 = target: T6, CK18 (Homo sapiens, UniProt P48730); experiment: Kinase panel screen; assay type: biochemical; details: Compound I and ATP 10 μM
T6 construct: purchased Upstate USA or Invitrogen (contract screening service)

EphA2 = EphA2 (Homo sapiens, UniProt P29317); experiment: Kinase panel screen; assay type: biochemical; details: Compound I and ATP 10 μM
TrkA = target: T7, TrkA (Homo sapiens, UniProt P04629); experiment: Kinase panel screen; assay type: biochemical; details: Compound I and ATP 10 μM
T7 construct: purchased Upstate USA or Invitrogen (contract screening service)

MAPK3 = target: T8, MAPK3 (Homo sapiens, UniProt P27361); experiment: Kinase panel screen; assay type: biochemical; details: Compound I at 1 μM and ATP at the apparent Km
T8 construct: purchased Upstate USA or Invitrogen (commercial screening service)
T8 sequence (P27361 whole entry): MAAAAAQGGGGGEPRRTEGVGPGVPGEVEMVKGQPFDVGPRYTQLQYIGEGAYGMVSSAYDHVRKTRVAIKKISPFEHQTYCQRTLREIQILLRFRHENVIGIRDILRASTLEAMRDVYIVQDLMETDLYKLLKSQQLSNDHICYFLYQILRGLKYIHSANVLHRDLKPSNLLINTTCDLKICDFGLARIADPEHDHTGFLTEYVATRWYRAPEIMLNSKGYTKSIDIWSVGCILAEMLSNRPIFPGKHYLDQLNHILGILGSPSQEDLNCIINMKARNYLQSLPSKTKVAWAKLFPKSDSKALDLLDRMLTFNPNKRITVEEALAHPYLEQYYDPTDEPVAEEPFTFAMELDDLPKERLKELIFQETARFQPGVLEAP

MST2 = target: T9, MST2 (Homo sapiens, UniProt Q13188); experiment: Kinase panel screen; assay type: biochemical; details: Compound I and ATP 10 μM
T9 construct: purchased Upstate USA or Invitrogen (commercial screening service)
T9 sequence (Q13188 whole entry): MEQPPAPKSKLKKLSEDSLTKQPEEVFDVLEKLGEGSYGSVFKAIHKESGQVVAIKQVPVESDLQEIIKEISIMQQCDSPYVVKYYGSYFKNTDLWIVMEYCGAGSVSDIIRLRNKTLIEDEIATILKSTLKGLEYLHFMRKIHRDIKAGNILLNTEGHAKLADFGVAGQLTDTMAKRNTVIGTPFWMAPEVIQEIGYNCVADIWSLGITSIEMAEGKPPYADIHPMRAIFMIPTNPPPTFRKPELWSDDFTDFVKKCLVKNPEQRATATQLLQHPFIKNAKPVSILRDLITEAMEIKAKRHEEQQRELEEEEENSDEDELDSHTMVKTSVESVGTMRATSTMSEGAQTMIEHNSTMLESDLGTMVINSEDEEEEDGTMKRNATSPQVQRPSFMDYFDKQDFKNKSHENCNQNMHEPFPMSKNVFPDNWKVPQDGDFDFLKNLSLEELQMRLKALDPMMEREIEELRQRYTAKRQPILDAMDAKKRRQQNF

IGF-1R = target: T10, IGF-1R (Homo sapiens, UniProt P08069); experiment: Kinase panel screen; assay type: biochemical; details: Compound I and ATP 10 μM
T10 construct: purchased Upstate USA or Invitrogen (commercial screening service)

KDR = target: T11, KDR (Homo sapiens, UniProt P35968); experiment: Kinase panel screen; assay type: biochemical; details: Compound I and ATP 10 μM
T11 construct: purchased Upstate USA or Invitrogen (contract screening service)
T11 sequence (P35968 20-1356): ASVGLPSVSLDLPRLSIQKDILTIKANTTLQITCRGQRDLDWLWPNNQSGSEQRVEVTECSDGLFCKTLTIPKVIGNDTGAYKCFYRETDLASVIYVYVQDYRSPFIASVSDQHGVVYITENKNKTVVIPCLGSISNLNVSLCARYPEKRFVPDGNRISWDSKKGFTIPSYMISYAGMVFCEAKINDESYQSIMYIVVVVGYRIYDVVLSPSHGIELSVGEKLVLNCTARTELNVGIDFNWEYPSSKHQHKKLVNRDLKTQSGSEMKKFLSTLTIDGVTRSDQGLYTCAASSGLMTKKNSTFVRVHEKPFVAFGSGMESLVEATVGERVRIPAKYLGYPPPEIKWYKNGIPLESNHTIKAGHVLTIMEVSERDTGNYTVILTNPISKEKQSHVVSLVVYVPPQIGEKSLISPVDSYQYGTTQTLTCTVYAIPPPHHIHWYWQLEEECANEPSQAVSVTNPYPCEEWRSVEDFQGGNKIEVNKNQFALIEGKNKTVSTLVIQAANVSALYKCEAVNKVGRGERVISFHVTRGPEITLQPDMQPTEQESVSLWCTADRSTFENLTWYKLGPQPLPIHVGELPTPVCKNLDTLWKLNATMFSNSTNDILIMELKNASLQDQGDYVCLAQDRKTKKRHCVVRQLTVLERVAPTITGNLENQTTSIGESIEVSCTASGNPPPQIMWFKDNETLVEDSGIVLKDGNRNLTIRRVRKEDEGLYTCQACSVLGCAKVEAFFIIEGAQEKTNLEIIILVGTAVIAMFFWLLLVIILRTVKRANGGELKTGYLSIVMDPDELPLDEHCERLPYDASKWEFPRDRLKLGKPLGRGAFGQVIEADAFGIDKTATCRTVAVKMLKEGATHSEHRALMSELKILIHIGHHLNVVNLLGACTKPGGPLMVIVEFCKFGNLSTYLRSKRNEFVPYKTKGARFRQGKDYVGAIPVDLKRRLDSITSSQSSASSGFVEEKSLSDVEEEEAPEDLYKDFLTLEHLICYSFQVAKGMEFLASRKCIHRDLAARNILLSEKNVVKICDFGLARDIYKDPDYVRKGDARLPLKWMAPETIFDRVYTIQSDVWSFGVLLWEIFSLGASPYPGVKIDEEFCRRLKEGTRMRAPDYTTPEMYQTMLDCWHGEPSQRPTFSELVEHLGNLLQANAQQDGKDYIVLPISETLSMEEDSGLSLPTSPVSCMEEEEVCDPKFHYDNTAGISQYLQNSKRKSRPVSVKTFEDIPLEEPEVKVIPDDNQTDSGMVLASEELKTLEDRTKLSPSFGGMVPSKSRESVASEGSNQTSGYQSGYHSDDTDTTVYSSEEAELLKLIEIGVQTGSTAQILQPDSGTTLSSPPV

NEK2 = target: T12, NEK2 (Homo sapiens, UniProt P51955); experiment: Kinase panel screen; assay type: biochemical; details: Compound I and ATP 10 μM
T12 construct: purchased Upstate USA or Invitrogen (commercial screening service)
T12 sequence (P51955 whole entry): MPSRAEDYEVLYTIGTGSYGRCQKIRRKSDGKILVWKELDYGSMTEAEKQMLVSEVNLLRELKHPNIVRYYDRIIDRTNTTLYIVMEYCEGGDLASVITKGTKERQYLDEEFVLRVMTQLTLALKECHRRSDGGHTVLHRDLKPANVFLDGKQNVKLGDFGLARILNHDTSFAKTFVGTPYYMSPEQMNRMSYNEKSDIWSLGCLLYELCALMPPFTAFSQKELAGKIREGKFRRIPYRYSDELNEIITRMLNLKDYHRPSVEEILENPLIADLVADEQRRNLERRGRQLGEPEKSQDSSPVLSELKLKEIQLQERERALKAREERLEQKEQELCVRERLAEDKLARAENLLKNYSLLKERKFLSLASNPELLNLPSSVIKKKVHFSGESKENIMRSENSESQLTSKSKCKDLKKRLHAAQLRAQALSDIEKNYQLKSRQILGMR

Ret = target: T13, Ret (Homo sapiens, UniProt P07949); experiment: Kinase panel screen; assay type: biochemical; details: Compound I and ATP 10 μM
T13 construct: purchased Upstate USA or Invitrogen (contract screening service)

Lck = target: T14, Lck (Homo sapiens, UniProt P06239); experiment: Kinase panel screen; assay type: biochemical; details: Compound I and ATP 10 μM
T14 construct: purchased Upstate USA or Invitrogen (contract screening service)

Rsk3 = target: T15, Rsk3 (Homo sapiens, UniProt Q15349); experiment: Kinase panel screen; assay type: biochemical; details: Compound I and ATP 10 μM
T15 construct: purchased Upstate USA or Invitrogen (commercial screening service)
T15 sequence (Q15349 whole entry): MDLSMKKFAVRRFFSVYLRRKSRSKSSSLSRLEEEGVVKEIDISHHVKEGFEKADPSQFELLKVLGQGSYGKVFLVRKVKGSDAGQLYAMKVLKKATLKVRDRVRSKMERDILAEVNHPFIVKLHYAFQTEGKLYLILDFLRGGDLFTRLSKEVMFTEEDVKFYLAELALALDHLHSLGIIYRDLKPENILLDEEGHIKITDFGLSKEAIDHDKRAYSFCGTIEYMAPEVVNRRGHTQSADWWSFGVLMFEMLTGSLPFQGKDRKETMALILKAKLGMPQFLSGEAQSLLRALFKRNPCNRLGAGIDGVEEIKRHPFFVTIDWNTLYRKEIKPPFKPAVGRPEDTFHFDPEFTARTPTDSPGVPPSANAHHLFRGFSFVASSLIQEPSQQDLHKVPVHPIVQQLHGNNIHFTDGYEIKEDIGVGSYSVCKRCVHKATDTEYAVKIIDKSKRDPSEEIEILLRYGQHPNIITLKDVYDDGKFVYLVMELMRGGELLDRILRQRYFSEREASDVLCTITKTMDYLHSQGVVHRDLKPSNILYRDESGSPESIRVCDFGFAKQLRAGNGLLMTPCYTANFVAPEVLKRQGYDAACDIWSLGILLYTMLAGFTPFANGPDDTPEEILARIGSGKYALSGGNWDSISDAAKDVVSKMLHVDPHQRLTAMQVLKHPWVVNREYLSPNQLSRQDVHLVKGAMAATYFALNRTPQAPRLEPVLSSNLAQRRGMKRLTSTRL

PAR-1Ba = target: T16, PAR-1Ba (Homo sapiens, UniProt Q7KZI7); experiment: Kinase panel screen; assay type: biochemical; details: Compound I and ATP 10 μM
T16 construct: purchased Upstate USA or Invitrogen (commercial screening service)

FGFR3 = target: T17, FGFR3 (Homo sapiens, UniProt P22607); experiment: Kinase panel screen; assay type: biochemical; details: Compound I and ATP 10 μM
T17 construct: purchased Upstate USA or Invitrogen (contract screening service)

CDK3 = target: T18, CDK3 (Homo sapiens, UniProt Q00526); experiment: Kinase panel screen; assay type: biochemical; details: Compound I and ATP 10 μM
T18 construct: purchased Upstate USA or Invitrogen (commercial screening service)

Met = target: T19, Met (Homo sapiens, UniProt P08581); experiment: Kinase panel screen; assay type: biochemical; details: Compound I and ATP 10 μM
T19 construct: purchased Upstate USA or Invitrogen (contract screening service)

myocardial infarct = experiment: Porcine MI model; assay type: in vivo, pig
Description: PI3Kγ/δ inhibition limits infarct development in a porcine MI model. In a final series of studies, MIs were modeled in the pig, as this species better approximates human coronary anatomy and responses to myocardial I/R injury. With aggressive model parameters of a 90 min ischemic period, therapeutic dosing 30 min post-reperfusion and infarct measurement at 24 h, we typically observed ischemic zones representing 20-30% of the total LV and 20-30% infarction of this area in control animals. […] Measuring infarct area as percent of total LV ischemic area, infarct size was reduced by 35% (P=0.04). […] Finally, taking advantage of the larger porcine heart to make more detailed measurements, infarct areas within the LV free wall only (as opposed to the free plus attached wall measurements reported up to this point) were also determined, reasoning that free wall infarcts are of greatest relevance to overall myocardial function.
Porcine MI model: All animal studies followed current “NIH Guidelines for the Use of Laboratory Animals” and were performed according to IACUC-approved protocols. Farm swine (Landrace-Duroc cross, 32-41 kg) were acclimated for 1-3 weeks prior to study group randomization. On the day of surgery, animals (fasted overnight) were first administered aspirin, clopridogrel and nifedipine (650, 300 and 300 mg p.o., respectively), followed by atropine sulfate and telazol (0.05 and 7 mg/kg i.m., respectively). Anesthesia was then induced with ketamine and xylazine (25 mg/kg each i.m.) followed by intubation and maintenance on inhaled isoflurane; body temperature was maintained at 35-37° C. using heating pads. For each animal, the ventral neck was shaved and scrubbed with iodine, an arterial sheath inserted into the carotid artery, and under fluoroscopic guidance a guide catheter advanced to the coronary artery ostium. Angiographic images were used to guide angioplasty balloon placement (below the first major LAD bifurcation). After advancing through the guide catheter to the proper location, the balloon was inflated at a steady rate to a pressure sufficient to ensure complete occlusion of the LAD (verified by fluoroscopy), and occlusion maintained for 90 min. Blood pressure was monitored throughout the surgical procedure and adjusted as needed, and ECG monitored for arrhythmias as well as to confirm LAD occlusion. Lactated Ringer's solution was maintained as an i.v. drip (via the auricular vein), and heparin given to maintain an activated clotting time of ˜300 seconds. […] At the end of the ischemic period, the balloon was deflated and removed, and the ischemic area allowed to reperfuse (again verified by fluoroscopy). Catheters were removed, the arterial access ligated, the surgical area closed in layers and buprenorphine (0.01 mg/kg i.m.) administered.
On Study Day 2 (24 hr post-LAD occlusion), a surgical plane of anesthesia was established with sodium pentobarbital, and the LAD exposed and occluded using a suture snare at the same level as previously. Evans blue dye (100 ml of 0.1% saline solution) was injected i.v. and allowed to circulate for 5 min prior to explanting the heart. Hearts were cut into approximately 1 cm short axis slices and TTC stained and photographed as described for the rodent MI model. […]

Akt3 = target: T20, Akt3 (Homo sapiens, UniProt Q9Y243); experiment: Kinase panel screen; assay type: biochemical; details: Compound I at 1 μM and ATP at the apparent Km
T20 construct: purchased Upstate USA or Invitrogen (commercial screening service)
T20 sequence (Q9Y243 whole entry): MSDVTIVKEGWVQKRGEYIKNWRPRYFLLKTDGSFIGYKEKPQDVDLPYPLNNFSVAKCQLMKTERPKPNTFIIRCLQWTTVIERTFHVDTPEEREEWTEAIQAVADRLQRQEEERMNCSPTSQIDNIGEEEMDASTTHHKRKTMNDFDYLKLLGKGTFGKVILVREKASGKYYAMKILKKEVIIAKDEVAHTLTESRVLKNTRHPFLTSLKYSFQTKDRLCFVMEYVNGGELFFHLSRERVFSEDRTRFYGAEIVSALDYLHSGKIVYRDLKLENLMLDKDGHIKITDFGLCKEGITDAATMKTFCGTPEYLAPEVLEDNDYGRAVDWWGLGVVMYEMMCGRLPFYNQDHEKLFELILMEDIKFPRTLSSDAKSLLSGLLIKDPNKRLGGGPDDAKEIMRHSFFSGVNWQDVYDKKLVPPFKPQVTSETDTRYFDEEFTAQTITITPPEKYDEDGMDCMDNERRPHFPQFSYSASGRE

EC = EC proliferation; assay type: cell-based; details: inhibitors at 10 μM; 24, 48, 72 h
Description: Inhibition of cell proliferation and signaling. (a) EC were cultured in the presence of vehicle (DMSO) or PI3K inhibitors (all at 10 μM); cell proliferation was assessed either 24 (open bar), 48 (grey bar), or 72 h (black bar) later.
Applicants therefore compared the compounds profiled in Table 1 for their effects on cell proliferation.

JNK2a2 = JNK2a2 (Homo sapiens, UniProt P45984); experiment: Kinase panel screen; assay type: biochemical; details: Compound I and ATP 10 μM
[1] = single 0.5 mg/kg i.v. bolus 30 min post-reperfusion, 24 h

In the case of Nc1nc(N)c2nc(-c3cccc(O)c3)c(-c3cccc(O)c3)nc2n1 [Compound I, 6,7-bis-(3-hydroxyphenyl)-pteridine-2,4-diamine], the “Percent Control, PKC0” value (PKC0) is reported as 73%, the “Percent Control, EphB4” value (EphB4) is reported as 68% and the “Percent Control, PRK2” value (PRK2) is reported as 83%. For the same compound, the “Percent Control, MST1” value (MST1) was 107%, the “Percent Control, Lyn (m)” value (Lyn) was 41% and the “Percent Control, CK18” value (CK18) was 24%. For the same compound, the “Percent Control, EphA2” value (EphA2) was 29%, the “Percent Control, TrkA” value (TrkA) was 57% and the “Percent Control, MAPK3*” value (MAPK3) was 99%. For the same compound, the “Percent Control, MST2” value (MST2) was 91%, the “Percent Control, IGF-1R” value (IGF-1R) was 104% and the “Percent Control, KDR” value (KDR) was 62%. For the same compound, the “Percent Control, NEK2” value (NEK2) was 98%, the “Percent Control, Ret” value (Ret) was 57% and the “Percent Control, Lck” value (Lck) was 52%. The “Percent Control, Rsk3” value (Rsk3) was 90%, the “Percent Control, PAR-1Ba” value (PAR-1Ba) was 93% and the “Percent Control, FGFR3” value (FGFR3) was 66%. The “Percent Control, CDK3” value (CDK3) was 72%, the “Percent Control, Met” value (Met) was 41% and the “reduction of infarct size vs. controls” value (myocardial infarct; single 0.3 mg/kg IV bolus 30 min post-reperfusion, N=12-13) was 32%. For the same compound, the infarct size (myocardial infarct; single 0.3 mg/kg IV bolus 30 min post-reperfusion, controls 56%) was 40%, the “increase in viable tissue within the ischemic zone” value (myocardial infarct; [1]) was 37% and the “reduction of free wall infarct size vs. vehicle-treated controls” value (myocardial infarct; [1]) was 38%. The “reduction of infarct size (infarct area as percent of total LV ischemic area)” value (myocardial infarct; [1]) was 35%, the “Percent Control, Akt3*” value (Akt3) was 98% and the “effect on EC proliferation” value (EC) was “no effects”. For the same compound, the “Percent Control, JNK2a2” value (JNK2a2) was 91%.
